Data published in ChEMBL document CHEMBL2413002, “A convenient synthesis of lubeluzole and its enantiomer: evaluation as chemosensitizing agents on human ovarian adenocarcinoma and lung carcinoma cells” (Bioorg Med Chem Lett, 2013).
pIC50: −log10 of the molar value.

Legend:
A2780 [1] = assay: Cytotoxicity against human A2780 cells after 72 hrs by MTT assay; type: functional, cell-based; settings: A2780, 72 h
A549 [2] = assay: Cytotoxicity against human A549 cells after 72 hrs by MTT assay; type: functional, cell-based; settings: A549, 72 h
A2780 [3] = assay: Antiproliferative activity against human A2780 cells at 0.005 uM after 72 hrs by MTT assay; type: functional; settings: A2780, 72 h
A549 [4] = assay: Antiproliferative activity against human A549 cells at 0.005 uM after 72 hrs by MTT assay; type: functional; settings: A549, 72 h

For `CN(c1nc2ccccc2s1)C1CCN(C[C@@H](O)COc2ccc(F)c(F)c2)CC1`, the pIC50 (A2780 [1]) was 4.85 and the pIC50 (A549 [2]) was 4.74.
`COc1cccc2c1C(=O)c1c(O)c3c(c(O)c1C2=O)C[C@@](O)(C(=O)CO)C[C@@H]3O[C@H]1C[C@H](N)[C@H](O)[C@H](C)O1` [DOXORUBICIN] gave a pIC50 (A2780 [1]) of 7.64.
For `CN(c1nc2ccccc2s1)C1CCN(C[C@H](O)COc2ccc(F)c(F)c2)CC1` [LUBELUZOLE], the pIC50 (A2780 [1]) was 5.24, the pIC50 (A549 [2]) was 4.85 and the inhibition at 0.005 µM (A2780 [3]) was 4.3%. It also gave an inhibition at 0.005 µM (A549 [4]) of 5.2%.
`CC(=O)O[C@H]1C(=O)[C@@]2(C)[C@H]([C@H](OC(=O)c3ccccc3)[C@]3(O)C[C@H](OC(=O)[C@H](O)[C@@H](NC(=O)c4ccccc4)c4ccccc4)C(C)=C1C3(C)C)[C@]1(OC(C)=O)CO[C@@H]1C[C@@H]2O` [PACLITAXEL] showed a pIC50 (A549 [2]) of 7.85.
